The text below walks through data of article PMC9646673, “A Novel, Orally Bioavailable, Small-Molecule Inhibitor of PCSK9 With Significant Cholesterol-Lowering Properties In Vivo” (Journal of Lipid Research, 2022).

Data set [1] relates to hepatic LDLR protein. As to the kind of experiment: Second efficacy study: hepatic LDLR protein (Western blotting). Type of data set: in vivo, mouse. The conditions noted are these: day 35; NYX-PCSK9i 50 mg/kg BID PO, atorvastatin […]. (In western blotting, separated proteins are transferred to a membrane and probed.)
For data set [2], the system named is APOE∗3-Leiden.CETP mice. As to the kind of experiment: Second efficacy study: body weight, food intake, plasma ALT and AST. The data set is classed as in vivo, mouse. Further details: Body weight (mean ± SD) / Food intake (mean ± SD): unit not given here. The following applies: NYX-PCSK9i 50 mg/kg BID PO, atorvastatin […]. The source says:
Animal experiments were approved by the governmental central committee on animal experiments (AVD5010020172064) and TNO’s animal welfare body (TNO-471 and TNO-482). Female APOE∗3-Leiden.CETP transgenic mice (11–16 weeks of age) were bred at the animal facility of TNO-InnoSer (Leiden, The Netherlands). Female animals were used in this study as they are more responsive to dietary cholesterol and fat than males and therefore typically develop atherosclerosis more rapidly than male APOE∗3-Leiden and APOE∗3-Leiden.CETP mice on cholesterol-containing diets ([33], [34]). Although measurements of atherosclerosis were not included as part of the present study, females were used with the prospect in mind that atherosclerosis studies will follow. The mice were housed under standard conditions that included 12 h light-dark cycles and access to a WTD and sterilized tap water ad libitum. Body weight, food intake, and clinical signs of behavior were monitored throughout the studies. […] Time t = 0 (weeks) was designated as the time at which mice were matched into groups after the 3-week run-in period in each efficacy study.
In both studies, blood samples were collected at weekly intervals via tail vein sampling after fasting the mice for 4 h. Blood samples were centrifugated (4500 g at 4°C), and the plasma was collected for the following analyses. Total plasma cholesterol levels were determined using a Cholesterol CHOD-PAP kit according to the manufacturer’s instructions. Plasma HDL-C levels were determined by first precipitating apoB-containing lipids using PEG 6000/glycine and then utilizing the Cholesterol CHOD-PAP kit ([35]). Non-HDL-C levels were determined by subtracting HDL-C levels from total cholesterol levels ([32]). Group-pooled lipoprotein profiles were determined by FPLC analysis using an AKTApurifier 10 FPLC system (GE Healthcare, Chicago, IL). Plasma PCSK9 levels were determined using a Mouse PCSK9 Quantikine ELISA kit as per the manufacturer’s protocol. ALT and AST levels of group-pooled samples were measured using the Roche Reflotron Plus System (Mannheim, Germany).

Data set [3] has as its system APOE∗3-Leiden.CETP mice. The following applies: cited from earlier work.

For `CC(C)c1c(C(=O)Nc2ccccc2)c(-c2ccccc2)c(-c2ccc(F)cc2)n1CC[C@@H](O)C[C@@H](O)CC(=O)O` [atorvastatin, reference compound], the “increase in hepatic LDLR protein expression” value in data set [1] was “no significant effect”. Besides, the “Body weight (mean ± SD)” value is 21.7 ± 0.8 in data set [2] (day 0 (baseline)) and 21.8 ± 1.2 in data set [2] (day 28). The “Food intake (mean ± SD)” value was 3.4 ± 0.3 in data set [2] (day 0 (baseline)); 2.5 ± 0.1 in data set [2] (day 7); 2.5 ± 0.2 in data set [2] (day 14); 2.3 ± 0.0 in data set [2] (day 21); 2.3 ± 0.1 in data set [2] (day 28); 2.5 ± 0.1 in data set [2] (day 35).

For the molecule “alirocumab: a monoclonal antibody against PCSK9”, the “hepatic cholesteryl ester content, fecal bile acid content and fecal neutral sterol levels” value in data set [3] is “affected none of these parameters”.
